# Results from PMC6200594 (ACS infectious diseases, 2018).
# Like-named read-outs stand apart in the source and are kept apart here.
# Tests used:
# [1] = tested on: bacterial cell membrane disruption / depolarization; assay: Membrane depolarization assay; format: cell-based; settings: DiSC3 release
# [2] = tested on: bacterial cell membrane disruption / depolarization; settings: DiSC3; cited from earlier work
# [3] = tested on: bacterial cell membrane permeability; settings: PI; cited from earlier work
# [4] = tested on: Ac2K-D-Ala-D-Lac; settings: remodeled peptidoglycan precursor; cited from earlier work
Substance,membrane depolarization activity (in words) [1],membrane depolarization activity (in words) [2],induced cell membrane permeability (in words) [3],decrease in binding affinity on replacing ᴅ-Ala-ᴅ-Ala with ᴅ-Ala-ᴅ-Lac [4]
CBP-vancomycin [compound 3],also observed,–,–,–
oritavancin,–,observed,activity in both assays has been observed,–
telavancin,–,observed,activity in both assays has been observed,–
vancomycin [compound 1],–,–,–,"1,000 fold"
